# Laboratory results as given in PMC4187505 (Journal of the American Heart Association: Cardiovascular …, 2014).
# Tests used:
# [1] = molecular target: hlipocalin-2 (human lipocalin-2, neutrophil gelatinase-associated lipocalin) (Homo sapiens, UniProt P80188); test: isothermal titration calorimetry; type: binding
# [2] = molecular target: the molecule itself; test: nonreducing SDS-PAGE
# Chain of hlipocalin-2 (human lipocalin-2, neutrophil gelatinase-associated lipocalin) (P80188 21-198): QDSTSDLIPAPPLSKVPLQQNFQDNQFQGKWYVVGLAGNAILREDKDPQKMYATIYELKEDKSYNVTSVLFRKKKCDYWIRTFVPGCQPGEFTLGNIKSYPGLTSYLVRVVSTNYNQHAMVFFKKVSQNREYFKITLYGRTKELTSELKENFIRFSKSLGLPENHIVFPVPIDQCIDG
Kd [1] [µM],Molecule,ratio of homodimer/monomer [2] [homodimer/monomer]
0.487,CCCCC/C=C\C/C=C\CCCCCCCC(=O)O [linoleic acid],–
1470,CCCCCCCC/C=C\CCCCCCCC(=O)O [oleic acid],–
–,"human lipocalin‐2 mutant C87A (cysteine 87 replaced by alanine) (natural protein, UniProt P80188 21-198, looked up, contains a significantly lesser amount of polyamines than wild type) QDSTSDLIPAPPLSKVPLQQNFQDNQFQGKWYVVGLAGNAILREDKDPQKMYATIYELKEDKSYNVTSVLFRKKKCDYWIRTFVPGAQPGEFTLGNIKSYPGLTSYLVRVVSTNYNQHAMVFFKKVSQNREYFKITLYGRTKELTSELKENFIRFSKSLGLPENHIVFPVPIDQCIDG",> 10
